For orientation: IC50 means the midpoint of a concentration-inhibition curve. Low readings indicate higher potency, high ones lower potency.

The target in one series is T1, FROUNT-CCR5 interaction (Homo sapiens, UniProt Q9BW27).
T1 construct: GST-fused FROUNT (FNT-C)
T1 sequence (Q9BW27 500-656 limits assumed): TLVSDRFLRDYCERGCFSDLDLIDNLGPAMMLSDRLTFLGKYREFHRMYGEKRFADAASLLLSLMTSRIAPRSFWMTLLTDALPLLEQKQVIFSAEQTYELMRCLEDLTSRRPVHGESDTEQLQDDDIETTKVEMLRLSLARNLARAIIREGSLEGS
Kind of series: HTRF FROUNT-CCR5 interaction assay. The class given is binding. Background: In TR-FRET formats the signal depends on donor and acceptor labels being close together.

In the next series the target is p53-MDM2 interaction (Homo sapiens, UniProt Q00987). In words: HTRF p53-MDM2 interaction counter assay. The format is binding.
Sequence of p53-MDM2 interaction (Q00987 whole entry): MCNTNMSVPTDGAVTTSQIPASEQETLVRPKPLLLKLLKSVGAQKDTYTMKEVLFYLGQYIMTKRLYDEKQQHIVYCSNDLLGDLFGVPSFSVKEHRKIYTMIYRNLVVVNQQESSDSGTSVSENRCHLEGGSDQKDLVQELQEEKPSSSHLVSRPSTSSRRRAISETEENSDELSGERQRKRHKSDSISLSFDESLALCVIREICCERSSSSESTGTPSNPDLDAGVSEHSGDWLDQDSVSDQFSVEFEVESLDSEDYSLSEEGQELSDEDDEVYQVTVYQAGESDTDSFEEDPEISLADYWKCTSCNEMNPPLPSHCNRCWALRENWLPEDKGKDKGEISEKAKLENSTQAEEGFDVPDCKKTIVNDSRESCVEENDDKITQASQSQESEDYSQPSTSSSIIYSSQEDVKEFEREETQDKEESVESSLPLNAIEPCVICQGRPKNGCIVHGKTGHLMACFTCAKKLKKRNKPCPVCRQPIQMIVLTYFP
Another series relates to peritoneal macrophages. In words: CCL2-induced pseudopodia protrusion of macrophages. The class given is cell-based, mice. The following applies: 25 µM, 1 h pre-incubation. Here is the method: Peritoneal macrophages were isolated from mice, seeded in the 8-well glass-based dishes (Life Technologies) and incubated overnight at 37 °C to allow the cells to adhere. After serum starvation for 6 h, cells were stimulated with chemokine at a concentration of 100 ng mL^–1, then fixed with 4% paraformaldehyde (Wako) and permeabilized with 0.1% Triton X-100 (Wako) in PBS, followed by staining with phalloidin conjugated with Alexa Fluor 594 (Life Technologies). […] Tumor macrophages were isolated from collagenase digestion of tumor tissue as attached cells by washing non-adherent cells away and further culturing them in DMEM containing 10 nM M-CSF (BD Biosciences) and 10% serum. After co-culture with LLC tumor cells, confocal images were obtained using an SP5 confocal microscope (Leica Microsystems). Cells were classified as lamellipodial/round-shaped or filopodial based on their morphology and the ratio of each type in the visual field determined.

Series [1] concerns THP-1 cells. Kind of series: Cell viability alongside chemotaxis assay. The format is cell-based, human. The conditions noted are these: at the concentrations tested in chemotaxis.
In series [2] the test system is THP-1 cells. Kind of series: Chemotaxis assay using TAXIScan. The class given is cell-based, human. The following applies: DSF 50 µM, towards CCL2. The protocol: The TAXIScan device (ECI, Tokyo, Japan) is an optically accessible horizontal chemotaxis apparatus consisting of an etched silicon substrate and a flat glass plate, which form two compartments separated by a 5-μm deep microchannel. THP-1 cells were applied through a hole connected to one of the compartments and aligned along the start line on the edge of the channel. Human CCL2 (10 ng mL^–1) was applied through a hole connected to the other compartment to form a concentration gradient in the channel. Time-lapse images were recorded every 30 s for 30 min and cell movement was analyzed using TAXIScan analyzer software (ECI, Tokyo, Japan).

In another series the test system is B16 melanoma. In words: B16 lung metastasis model. The format is in vivo, C57BL/6 mice. The protocol: For evaluating subcutaneous tumor growth, LLC or B16 cells (5 × 10^5) in 50 μl PBS were inoculated subcutaneously into the right flanks of mice. Mice were euthanized when their tumor volumes reached 4000 mm^3. Tumor sizes were measured twice a week using calipers. Tumor volume was calculated using the following formula: Volume = (width)^2 × length/2. For the lung metastasis model, 1 × 10^6 LLC or B16 cells in 200 μl PBS were injected intravenously into mice. Mice were euthanized at day 10 after tumor injection for the LLC model and day 5–9 for the B16 model, and the lungs were isolated after perfusion with PBS via the left ventricle. Visible lung metastases were counted in the left lobe. The diameters of metastatic nodules in the lung lobe image were measured using ImageJ software. […] Anti-PD-1 antibody (clone J43, BioXcell) was injected intraperitoneally at a dose of 200 μg per mouse on day 5, 8, 14, and 18 after tumor inoculation. Mice were anesthetized and perfused with PBS and the left lungs were isolated. […] Fluorescence images derived from B16-DsRed cells and stained antibodies were obtained using an SP5 confocal microscope (Leica Microsystems). The F4/80 + macrophage number accumulated in and around the tumor nodule visualized by fluorescent protein was counted per nodule of similar sizes among the control and FROUNT-cKO, vehicle, or DSF-treated groups.

In series [3] the test system is Lewis lung carcinoma (LLC). Kind of series: LLC lung metastasis model. The format is in vivo, C57BL/6 mice. The following applies: LLC i.v.; DSF 40 mg kg-1 i.p. daily. Here is the method:
For evaluating subcutaneous tumor growth, LLC or B16 cells (5 × 10^5) in 50 μl PBS were inoculated subcutaneously into the right flanks of mice. Mice were euthanized when their tumor volumes reached 4000 mm^3. Tumor sizes were measured twice a week using calipers. Tumor volume was calculated using the following formula: Volume = (width)^2 × length/2. For the lung metastasis model, 1 × 10^6 LLC or B16 cells in 200 μl PBS were injected intravenously into mice. Mice were euthanized at day 10 after tumor injection for the LLC model and day 5–9 for the B16 model, and the lungs were isolated after perfusion with PBS via the left ventricle. Visible lung metastases were counted in the left lobe. The diameters of metastatic nodules in the lung lobe image were measured using ImageJ software. […] Anti-PD-1 antibody (clone J43, BioXcell) was injected intraperitoneally at a dose of 200 μg per mouse on day 5, 8, 14, and 18 after tumor inoculation.

Series [4] deals with MMTV-PyVT spontaneous mammary tumor. In words: MMTV-PyVT spontaneous mammary tumor model. The class given is in vivo, mice. The following applies: treatment from age of 17 weeks.
The subject of a further series is B16 tumor cells. Kind of series: B16 tumor cell growth (WST-1 assay). The format is cell-based. The conditions noted are these: B16, 48 h. For orientation: Tetrazolium assays rely on reduction of a dye to a coloured formazan, in cell work by metabolically active cells.
Series [5] has as its system LLC tumor cells co-cultured with monocytes. In words: Tumor cell co-culture with monocytes/macrophages. The following applies: nano-molar concentrations of DSF. The class given is cell-based, mice. Here is the method:
Monocytes were enriched from bone marrow cells by MACS negative selection for CD3, B220, Ly-6G, NK1.1, Ter119, CD49b, and c-kit. The percentage of Ly-6C^hi Ly-6G^− monocytes were >80%. Monocytes (1 × 10^5) and 100 DsRed^+ LLC tumor cells were co-cultured for 24 h. Proliferating tumor cell clusters containing more than 10 cells were enumerated by fluorescent microscopy. For flow cytometry analysis, cultured cells were harvested with trypsin-EDTA after 3 days of culture. Cells were stained with CD45-FITC (clone 102, BioLegend), then stained with annexin V-APC in binding buffer (BD biosciences). For detection of DNA synthesis, 5-ethynyl-2´-deoxyuridine (EdU) was added to the culture in the final hour of incubation. Intracellular EdU was stained using Click-iT® EdU Alexa Fluor™ 647 flow cytometry assay kits (Thermo Fisher Scientific) according to manufacturer’s instructions. Flow cytometry data were obtained by gating CD45(−) DsRed(+) cells and analyzing annexin V-positive cells or EdU-positive cells. Dead cells were excluded by Zombie Aqua staining (BioLegend). Stained cells were measured using Flow-Count™ Fluorospheres (Beckman Coulter) for the determination of absolute counts.

Procedure for B16 tumor cells: To evaluate the effects of compounds on cell growth, cells were incubated with inhibitors for 48 h, then WST-1 (Dojindo) was added to the culture for the final 30 min. An Envision instrument (PerkinElmer) was used to measure the absorbance of each well at 450 nm versus a 650-nm reference to detect the amount of formazan produced from WST-1 by mitochondrial dehydrogenases in viable cells.

On to `CCN(CC)C(=S)SSC(=S)N(CC)CC` [DSF, disulfiram], for which the “inhibition of FROUNT-CCR5 interaction” value against FROUNT-CCR5 interaction was “specifically inhibited”. For the same compound, the “effect on p53-MDM2 interaction” value on p53-MDM2 interaction (HTRF) was “did not affect”. The compound also showed an IC50 on p53-MDM2 interaction (HTRF titration assay) greater than 1 µM. Also, the CCL2-induced pseudopodia protrusion result in the series with peritoneal macrophages is given as “inhibited”. In addition, the “cytotoxicity (cell viability)” value in the series on THP-1 cells [1] was “without any cytotoxicity”. In the series with THP-1 cells [2], the chemotaxis directionality entry was “impaired” and the chemotaxis velocity result is reported as “impaired”. In addition, the “lung metastatic nodule formation” value with B16 melanoma (B16 i.v., DSF 40 mg kg-1 i.p. daily) was “significantly reduced”. In addition, the “macrophage accumulation around tumor metastatic nodules” value in the series with B16 melanoma (day 12 after B16 tumor cell injection, F4/80) was “diminished”. For the same compound, the “lung metastatic nodule formation” value in series [3] is recorded as “significantly reduced”. Besides, the “growth of established tumors” value in series [4] is “impaired”. The in vitro growth result in the series with B16 tumor cells is recorded as “no effect”. In series [5], the “tumor cell growth induced by co-culture with monocytes” value was “inhibited”.

(Values after article PMC6992764 (Nature Communications, 2020).)
